According to publication PMC8745345, “Hydroxy Pentacyclic Triterpene Acid, Kaempferol, Inhibits the Human 5-Hydroxytryptamine Type 3A Receptor Activity” (International Journal of Molecular Sciences, 2022):

Target: T1, human 5-HT3A receptor I144A mutant (Homo sapiens, UniProt P46098)
T1 sequence (P46098 24-478): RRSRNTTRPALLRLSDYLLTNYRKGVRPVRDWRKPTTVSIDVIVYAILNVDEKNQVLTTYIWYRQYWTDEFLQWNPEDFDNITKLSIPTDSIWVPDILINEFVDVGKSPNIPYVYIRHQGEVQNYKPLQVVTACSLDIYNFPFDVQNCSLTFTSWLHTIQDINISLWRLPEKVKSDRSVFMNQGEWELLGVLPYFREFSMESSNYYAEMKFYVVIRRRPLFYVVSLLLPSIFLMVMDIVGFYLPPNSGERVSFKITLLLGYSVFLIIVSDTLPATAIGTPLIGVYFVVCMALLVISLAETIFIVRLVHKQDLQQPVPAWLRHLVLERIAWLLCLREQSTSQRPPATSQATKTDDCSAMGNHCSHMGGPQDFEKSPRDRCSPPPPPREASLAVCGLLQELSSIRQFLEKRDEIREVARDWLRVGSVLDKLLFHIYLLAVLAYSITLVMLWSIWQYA
Assay: Two-electrode voltage clamp, I5-HT inhibition, I144A mutant
Format: cell-based
Details: −80 mV
Protocol: Human 5-HT3A receptor cDNA was linearized using restriction enzyme XhoI. In vitro transcription was performed using an mMESSAGE mMACHINE T7 Transcription Kit (Thermo Fisher Scientific, Waltham, MA, USA). The final mRNA product was dissolved in 1X Diethyl Pyrocarbonate (RNase-free water) at a final concentration of 1 μg/μL and kept in a deep-freezer at −80 °C until used.
Xenopus oocytes were used in this study as cells for expression of human 5-HT3A receptor. All female frogs used in this experiment were obtained from the Korean Xenopus Resource Center for Research (KXRCR000001). Xenopus management followed the guideline of Chonnam National University institution guidelines (CNU IACUC-YB-2016-07, July 2016). Xenopus oocytes were extracted during ice incubation state and isolated as single oocytes using collagenase II (2 mg/mL) in OR2 buffer (82.5 mM NaCl, 2 mM KCl, 1 mM MgCl2, 5 mM HEPES, pH 7.4). […]
The voltage relationship experiment for confirming the relationship between induce-inward current and voltage, the voltage was varied from −80 mV to +60 mV using a ramp protocol. […] All recording data were analyzed using Clampfit 9.0 (Molecular Devices, San Jose, CA, USA). […]
All presented experiments were performed at least three times for scientific verification. […] Induced-inward current data were analyzed with SigmaPlot 10.0 software (Systat Software, Inc., San Jose, CA, USA). […]

Question: For `O=c1c(O)c(-c2ccc(O)cc2)oc2cc(O)cc(O)c12` [KAE, kaempferol], which IC50 is on record?
Answer: 34.9 ± 11.2 µM

Question: And the “n (Hill coefficient)” value?
Answer: 1.5 ± 0.4
